Tested on: participants with PTSD
Test: IMPACT-1 open-label study (Part A)
Assay type: in vivo, human
Parameters: reduction in Anxiety Sub-Scale of MADRS: concentration or dose not given beside the values
Description: The purpose of this pilot study is to evaluate the safety, tolerability, and efficacy of methylone in adult participants with PTSD. The study is conducted in two parts. Part A is open-label enrolling up to 15 evaluable participants with PTSD. After completion of Part A, enrollment will begin for Part B, which is double-blind, placebo-controlled and enrolling up to 64 evaluable participants with PTSD.
Brief Summary: This is a two-part study to assess methylone for the management of the symptoms of PTSD. Part A is an open-label, non-controlled assessment in up to 15 evaluable participants with PTSD to assess early safety and efficacy and to confirm procedures included in the blinded portion (Part B) of the study. After completion of Part A, enrollment for Part B will begin in up to 64 participants. Part B is identical to Part A with the exception of the inclusion of a placebo arm in Part B.
For each participant in Parts A and B, the study consists of: • Screening Period (Day-28 to Day-4): Informed consent, eligibility assessment, and enrolment of eligible participants. • Baseline/Preparatory Session (Day-3 to Day-1): Baseline assessments, confirmation of eligibility, and a preparatory psychoeducation session leading to enrolment confirmation. • Treatment Period (Day 1 to Day 24): Four weekly dose sessions, with associated remote sessions. The dose sessions last at least 8 hours, or until all effects (physical and psychological) have resolved (whichever is longer). Each dose session is followed by a safety phone call 1 day after dosing and efficacy assessments 2 days after dosing. Each dosing period is video recorded for quality and training purposes. The videos may be reviewed to ensure the Mentor is adhering to the Mentor training. • Follow-Up Period (Day 29 to Day 64): Follow-Up visits for safety and efficacy occur at 1, 2, 3 and 6 weeks post-final study drug administration. In addition, there are Mentor-Led Reflection Sessions 1, 2 and 3 weeks post-final study drug administration. Participants are contacted via telephone on Day 57 (±2 days) for Follow-Up. • Discontinuations: Participants who discontinue prematurely are asked to return for an extra visit to duplicate the 6-week end-of-study (EOS) visit.
Each dose was given as an initial dose, followed by a second dose 90 minutes later. During the dosing session, participants were accompanied by a trained Mentor who provided non-directive support. After the 4-week treatment period, participants attended follow-up visits at 1, 2, 3, and 6 weeks following the last dose. Safety was assessed via standard measures including adverse events. PTSD symptoms were assessed via Clinician-Administered PTSD Scale for DSM-5 (CAPS-5), depressive symptoms were assessed via Montgomery-Åsberg Depression Rating Scale (MADRS). Anti-anxiety efficacy was evaluated using the Anxiety Sub-Scale of MADRS, namely, questions (Items 3, 4, 5, 6) that address four anxiety items (inner tension, reduced sleep, reduced appetite, concentration difficulties) Changes from baseline were analyzed using a paired t-test p-values.
Methods: The IMPACT-1 study is a multi-center, two-part clinical trial. Part A has completed and was an open-label evaluation involving 14 participants with PTSD. Eligible participants are adults with severe PTSD (CAPS-5 ≥35) who had failed at least 1 prior treatment (pharmacotherapy and/or psychotherapy) for PTSD. […] Throughout each dosing session, participants were provided non-directive psychological support by a trained mental health practitioner. Following the 4-week treatment period, participants were followed for an additional 6 weeks to evaluate the durability of the therapeutic effect. PTSD symptom improvement was evaluated on the CAPS-5. Functioning was assessed via the 3 domains (school/work, family life, social life) of the Sheehan Disability Scale (SDS). Global improvement was measured by the CGI-I. Safety was assessed by monitoring adverse events, vital signs, and C-SSRS. […]

SMILES: CNC(C)C(=O)c1ccc2c(c1)OCO2 (stereo not shown) [methylone, 3,4-methylenedioxy-N-methylcathinone]
- decrease in CAPS-5 score (Day 3): 8.4 points
- decrease in MADRS score (Day 3): 8.2 points
- reduction in Anxiety Sub-Scale of MADRS (Day 3): 20%
- reduction in Anxiety Sub-Scale of MADRS (Day 10): 43%
- reduction in Anxiety Sub-Scale of MADRS (Day 17): 50%
- reduction in Anxiety Sub-Scale of MADRS (Day 24): 57%
- reduction in Anxiety Sub-Scale of MADRS (Day 29): 56%
- reduction in Anxiety Sub-Scale of MADRS (Day 36): 66%
- reduction in Anxiety Sub-Scale of MADRS (Day 43): 64%
- SDS Family Life score, mean (SD) (Day 64): 3.1 (3.45)
- SDS Mean Overall score, mean (SD) (Day 64): 3.1 (3.12)
- SDS Social Life score, mean (SD) (Day 64): 3.2 (3.39)
- SDS Work/School score, mean (SD) (Day 64): 3.3 (3.78)
- reduction in Anxiety Sub-Scale of MADRS (Day 64): 66%
- PSQI total score change (end of study (6 weeks after the last dose)): −4.0 points
- drug-related SAEs (human, in vivo, oral, 4 weeks): No drug-related SAEs occurred

— patent US20250332139A1, “PS[…] AND THEIR USE FOR TREATING […] AND NE[…] DISORDERS” (Transcend Therapeutics, Inc., priority 2021, published 2025)
